Assay results: ChEMBL document CHEMBL3769391, “Identification of a new cyathane diterpene that induces mitochondrial and autophagy-dependent apoptosis and shows a potent in vivo anti-colorectal cancer activity” (Eur J Med Chem, 2016)
Active and inactive are the calls of the source. The calls are words filed in the database; no cut-off is given here.

Legend:
[1] = system: HCT-116; assay: Induction of apoptosis in Bax deficient human HCT116 cells after 24 hrs by Annexin V-FITC/propidium iodide staining based flow cytometry; type: functional, cell-based
[2] = system: HCT-116; assay: Induction of apoptosis in Bax deficient human HCT116 cells assessed as late apoptotic cells at 15 uM after 24 hrs by Annexin V-FITC/propidium iodide staining based flow cytometry in presence of NAC (reference value: 1.56%); type: functional
[3] = system: HCT-116; assay: Induction of apoptosis in human HCT116 cells assessed as apoptotic cells at 5 uM after 24 hrs by Annexin V-FITC/propidium iodide staining based flow cytometry in presence of caspase inhibitor Z-VAD-FMK; type: functional
[4] = system: HCT-116; assay: Induction of apoptosis in Bax deficient human HCT116 cells assessed as late apoptotic cells at 20 uM after 24 hrs by Annexin V-FITC/propidium iodide staining based flow cytometry (reference value: 1.5%); type: functional
[5] = system: HCT-116; assay: Induction of apoptosis in human HCT116 cells assessed as increase in mitochondrial superoxide radical after 16 hrs by MitoSOX Red staining based flow cytometry; type: functional, cell-based
[6] = system: HCT-116; assay: Induction of apoptosis in human HCT116 cells assessed as viable cells at 5 uM after 24 hrs by Annexin V-FITC/propidium iodide staining based flow cytometry (reference value: 93.64%); type: functional; settings: HCT-116, 24 h, read-out: Activity
[7] = system: Mus musculus; assay: Hepatotoxicity in immune deficient nude BALB/c mouse xenografted with Bax deficient human HCT116 cells assessed as changes in total protein level at 5 and 10 mg/kg, ip administered every other day for 2 weeks measured during compound dosing; type: toxicity, organism-based, HCT-116; settings: in vivo, 336 h
[8] = system: HCT-116; assay: Induction of apoptosis in ATG5 knockdown human HCT116 cells assessed as early apoptotic cells at 5 uM after 24 hrs by Annexin V-FITC/propidium iodide staining based flow cytometry (reference value: 1.13%); type: functional
[9] = system: HCT-116; assay: Induction of apoptosis in human HCT116 cells assessed as late apoptotic cells at 2.5 uM after 24 hrs by Annexin V-FITC/propidium iodide staining based flow cytometry (reference value: 4.54%); type: functional
[10] = system: HCT-116; assay: Induction of apoptosis in human HCT116 cells assessed as depolarization of mitochondrial inner transmembrane potential after 24 hrs by TMRE staining based flow cytometry; type: functional, cell-based
[11] = system: HCT-116; assay: Induction of apoptosis in human HCT116 cells assessed as caspase activation at 5 uM by CaspACEFITC-VAD-FMK staining based flow cytometry; type: functional, cell-based; settings: TDE = time-dependent effect
[12] = system: HCT-116; assay: Induction of apoptosis in Bax deficient human HCT116 cells assessed as late apoptotic cells at 5 uM after 24 hrs by Annexin V-FITC/propidium iodide staining based flow cytometry (reference value: 1.5%); type: functional
[13] = system: Mus musculus; assay: Toxicity in immune deficient nude BALB/c mouse xenografted with human HCT116 cells assessed as discomfort behavioral changes at 5 and 10 mg/kg, ip administered every other day for 2 weeks measured during compound dosing; type: organism-based, HCT-116; settings: in vivo, 336 h
[14] = system: HCT-116; assay: Induction of apoptosis in human HCT116 cells assessed as increase in BimS expression at 5 uM after 6 to 24 hrs by Western blot analysis; type: functional, cell-based
[15] = system: HCT-116; assay: Induction of autophagy in human HCT116 cells assessed as increase in LC3-2 level at 5 uM by Western blot analysis; type: functional, cell-based
[16] = Antitumor activity against Bax deficient human HCT116 cells xenografted in immune deficient nude BALB/c mouse assessed as tumor growth inhibition at 5 mg/kg, ip administered every other day for 2 weeks measured after 2 weeks post last dose relative to control; type: functional; settings: HCT-116, ip, 336 h, read-out: TGI
[17] = system: SW480; assay: Induction of apoptosis in human SW480 cells assessed as apoptotic cells at 10 uM after 24 hrs by Annexin V-FITC/propidium iodide staining based flow cytometry; type: functional, cell-based
[18] = system: HCT-116; assay: Induction of chloroquine-induced autophagic flux in human HCT116 cells assessed as increase in LC3-2 level at 5 uM by Western blot analysis; type: functional, cell-based
[19] = system: HCT-116; assay: Induction of apoptosis in human HCT116 cells assessed as early apoptotic cells at 5 uM after 24 hrs by Annexin V-FITC/propidium iodide staining based flow cytometry in presence of DTT (reference value: 2.2%); type: functional
[20] = system: HCT-116; assay: Induction of apoptosis in human HCT116 cells assessed as viable cells at 5 uM after 24 hrs by Annexin V-FITC/propidium iodide staining based flow cytometry in presence of NAC (reference value: 93.64%); type: functional; settings: HCT-116, 24 h, read-out: Activity
[21] = system: Mus musculus; assay: Toxicity in immune deficient nude BALB/c mouse xenografted with Bax deficient human HCT116 cells assessed as discomfort behavioral changes at 5 and 10 mg/kg, ip administered every other day for 2 weeks measured during compound dosing; type: organism-based, HCT-116; settings: in vivo, 336 h
[22] = system: HCT-116; assay: Induction of apoptosis in human HCT116 cells assessed as necrotic cells at 5 uM after 24 hrs by Annexin V-FITC/propidium iodide staining based flow cytometry (reference value: 0.44%); type: functional
[23] = Cytotoxicity against Bax deficient human HCT116 cells assessed as reduction in cell viability after 24 hrs by MTT assay; type: functional, cell-based; settings: HCT-116, 24 h
[24] = Cytotoxicity against human HCT116 cells assessed as reduction in cell viability after 24 hrs by MTT assay; type: functional, cell-based; settings: HCT-116, 24 h
[25] = system: HCT-116; assay: Induction of apoptosis in human HCT116 cells assessed as increase in total cellular ROS level after 6 hrs by H2DCFDA staining based flow cytometry; type: functional, cell-based
[26] = system: HCT-116; assay: Induction of apoptosis in ATG5 knockdown human HCT116 cells assessed as late apoptotic cells at 5 uM after 24 hrs by Annexin V-FITC/propidium iodide staining based flow cytometry (reference value: 2.01%); type: functional
[27] = system: HCT-116; assay: Induction of apoptosis in human HCT116 cells assessed as ATG5 cleavage at 5 uM after 4 to 12 hrs by Western blot analysis; type: functional, cell-based
[28] = system: HCT-116; assay: Induction of apoptosis in human HCT116 cells assessed as changes in Bax expression at 5 uM after 6 to 24 hrs by Western blot analysis; type: functional, cell-based
[29] = Antitumor activity against Bax deficient human HCT116 cells xenografted in immune deficient nude BALB/c mouse assessed as tumor growth inhibition at 10 mg/kg, ip administered every other day for 2 weeks measured after 2 weeks post last dose relative to control; type: functional; settings: HCT-116, ip, 336 h, read-out: TGI
[30] = system: HCT-116; assay: Induction of Bcl-2 expression in human HCT116 cells at 5 uM after 4 to 12 hrs by qRT-PCR method; type: functional, cell-based
[31] = system: Mus musculus; assay: Toxicity in immune deficient nude BALB/c mouse xenografted with human HCT116 cells assessed as changes in body weight at 5 and 10 mg/kg, ip administered every other day for 2 weeks measured during compound dosing; type: organism-based, HCT-116; settings: in vivo, 336 h
[32] = system: HCT-116; assay: Induction of apoptosis in human HCT116 cells assessed as changes in Bcl-X(L) expression at 5 uM after 6 to 24 hrs by Western blot analysis; type: functional, cell-based
[33] = system: HCT-116; assay: Induction of apoptosis in Bax deficient human HCT116 cells assessed as early apoptotic cells at 10 uM after 24 hrs by Annexin V-FITC/propidium iodide staining based flow cytometry (reference value: 1.13%); type: functional
[34] = system: HCT-116; assay: Induction of apoptosis in human HCT116 cells assessed as late apoptotic cells at 7.5 uM after 24 hrs by Annexin V-FITC/propidium iodide staining based flow cytometry (reference value: 4.54%); type: functional
[35] = system: HCT-116; assay: Induction of apoptosis in human HCT116 cells assessed as ATG5 cleavage by Western blot analysis in presence of chloroquine; type: functional, cell-based

For `CO[C@@H]1C(C=O)=CC[C@@H]2C3=C(C(C)C)CC[C@]3(C)CC[C@@]2(C)[C@H]1O`, the Activity [1] was “Dose-dependent effect”, the Activity [2] was 2.07% and the Activity [3] was 28.81%. For the same compound, the Activity [4] was 32.25%, the Activity [5] was “Dose-dependent effect” and the viability at 5 µM [6] was 56.3%. The Activity [7] was “Non-toxic”, the Activity [8] was 2.36% and the Activity [9] was 7.54%. For the same compound, the Activity [10] was “Dose-dependent effect”, the Activity [11] was “tde” and the Activity [12] was 4.14%. The Activity [13] was “Non-toxic”, the Activity [14] was “Active” and the Activity [15] was “Active”. For the same compound, the inhibition in vivo at 5 mg/kg [16] was 25.8%, the Activity [17] was “Active” and the Activity [18] was “Active”. For the same compound, the Activity [19] was 5.58%, the viability at 5 µM [20] was 91.4% and the Activity [21] was “Non-toxic”. It also gave an Activity [22] of 5.93%, an IC50 [23] of 24.2 µM and an IC50 [24] of 9.16 µM. For the same compound, the Activity [25] was “Dose-dependent effect”, the Activity [26] was 1.85% and the Activity [27] was “Active”. For the same compound, the Activity [28] was “inactive”, the inhibition in vivo at 10 mg/kg [29] was 60.1% and the Activity [30] was “Active”. For the same compound, the Activity [31] was “Non-toxic”, the Activity [32] was “inactive” and the Activity [33] was 44.04%. For the same compound, the Activity [34] was 20.8% and the Activity [35] was “inactive”.
